Tests used:
Assay type in all cases: in vivo
angiogenesis [1] = assay: Rat sponge model, hemoglobin content of sponge (Experimental Example 1)
Method: (§1) As the promoter of the present invention, the AS-containing lipid emulsion of Example 4 was diluted with a 10% lipid emulsion (Intralipos®, manufactured by the Green Cross Corporation, produced and sold by Yoshitomi Pharmaceutical Industries, Ltd. since April 1, 1998) and used. For the vehicle administration control group, the above-mentioned 10% lipid emulsion alone was used.
(§2) Rats were anesthetized and the dorsal median line was incised for about 1 cm and an air pocket was made subcutaneously at about 2.5 cm toward the tail side with a Kocher clamp. A hemostatic gelatin sponge (Spongel®, 1.0×1.0×0.5 cm; manufactured by Yamanouchi Pharmaceutical Co., Ltd.) infiltrated with physiological saline was implanted therein to prepare rat sponge models.
(§3) The incisive region was sutured, antisepticized and intramulscular injection of an antibiotic was given, after which the rats were returned to the breeding cages. Each preparation was bolus administered via the tail vein once a day from the day of sponge implanting to day 4. After 4 days from the implanting, 8 rats per group were sacrificed. The back was opened, and the surrounding tissue was removed trying not to damage the implanted sponge and the surface of the sponge was photographed. All the sponges were taken out and a 0.1M aqueous ammonia (2 ml) was added. The sponges were stood for 4 hr to extract hemoglobin in the sponge. Hemoglobin in the extract (100 μl) was quantitated using an assay kit (hemoglobin B-TESTWAKO; manufactured by Wako Pure Chemical Industries, Ltd.). The amount of the hemoglobin in the sponge was calculated and used as the index of angiogenesis.
For the evaluation of the angiogenic effect, a multiple comparison test by Dunnett method was performed to examine significant difference, using the vehicle administration group as a control. The significance was ascribed at less than 5% risk rate.

angiogenesis [2] = assay: Rat sponge model, observation of photograph of sponge surface (Experimental Example 1); conditions: AS administration group; after 4 days; visual observation
Method: as §1, §2
as §3, with “The back was opened, and the surrounding tissue was removed trying not to damage the implanted sponge and the surface of the sponge was photographed. All the sponges were taken out and a 0.1M aqueous ammonia (2 ml) was added. The sponges were stood for 4 hr to extract hemoglobin in the sponge.” left out

angiogenesis by b-FGF [3] = assay: Rat sponge model with b-FGF, hemoglobin content of sponge (Experimental Example 2); conditions: for Hemoglobin in sponge at 4 days after implanting: mean ± standard error
Method: as §1, with “In the same manner as in Experimental Example 1, as” for “As”, “Apr.” for “April”
(§4) Using a hemostatic gelatin sponge infiltrated with physiological saline containing 0.1% BSA (bovine serum albumin) or b-FGF solution (b-FGF 1 mg/ml solution, 100 μl, diluted 10-fold with physiological saline containing 0.1% BSA), and in the same manner as in Experimental Example 1, rat sponge models (6-8 animals per group) were prepared. The vehicle and AS were bolus administered via the tail vein once a day at the volume of 1 ml/kg from the day of sponge implanting to day 4. After 4 days from the implanting, the surface of the sponge was photographed, and the amount of the hemoglobin in the sponge was calculated in the same manner as in Experimental Example 1.
For the evaluation of the angiogenic effect, a multiple comparison test (group 1 versus groups 2, 3) by Dunnett method was performed to examine significant difference, using the vehicle alone administration group (BSA-containing physiological saline in sponge +10% lipid emulsion intravenous injection) as a control. For the evaluation of the relationship between AS and b-FGF, an unpaired t-test (group 2 versus group 3) was performed using the b-FGF alone administration group as a control to examine significant difference. The significance was ascribed at less than 5% risk rate.

angiogenesis by b-FGF [4] = assay: Rat sponge model with b-FGF, observation of photograph of sponge surface (Experimental Example 2)
Method: as §1, with “In the same manner as in Experimental Example 1, as” for “As”, “Apr.” for “April”
as §4

CCCCC[C@H](O)/C=C/[C@@H]1C(CCCCCCC(=O)OCCCC)=C(OC(=O)CCC)C[C@H]1O [AS, butyl 9-butyryloxy-11α,15S-dihydroxyprosta-8,13E-dien-1-oate]
Hemoglobin in sponge at 4 days after implanting (angiogenesis [1]; AS 3 μg/kg i.v. bolus via tail vein once a day to day 4, mean ± standard error, P < 0.05 vs vehicle 1.5 ± 0.9 (Dunnett)): 4.4 ± 0.8 mg/sponge | hemoglobin content compared with the vehicle administration group (angiogenesis [1]; AS 3 μg/kg i.v. bolus, consecutive, result in words): increased the hemoglobin content compared with the vehicle administration group and a significant difference was observed | promotion of angiogenesis (angiogenesis [1]; summary of hemoglobin content and photograph observation, Experimental Example 1): promoted angiogenesis | blood vessels on sponge surface (FIG. 2) (angiogenesis [2]): a noticeable blood vessel network that allows visual observation was found, showing superior angiogenesis | angiogenesis promoting effect by b-FGF (angiogenesis by b-FGF [3]; AS and b-FGF co-administered, summary): potentiated | hemoglobin content of sponge as compared with the b-FGF alone administration group (angiogenesis by b-FGF [3]; AS and b-FGF co-administration group, result in words): increased significantly | Hemoglobin in sponge at 4 days after implanting (angiogenesis by b-FGF [3]; group 3: AS 3 μg/kg i.v. with b-FGF 1 μg/sponge, n 7, P < 0.05 vs b-FGF alone (unpaired t-test)): 20.7 ± 3.1 mg/sponge | blood vessels on sponge surface (FIG. 5) (angiogenesis by b-FGF [4]; AS and b-FGF co-administration group (group 3)): more noticeable formation of a blood vessel network was observed, with larger blood vessel diameters

b-FGF: growth factor, basic fibloblast growth factor
hemoglobin content of sponge (angiogenesis by b-FGF [3]; b-FGF alone administration group, after 4 days, result in words): increased | Hemoglobin in sponge at 4 days after implanting (angiogenesis by b-FGF [3]; group 2: b-FGF 1 μg/sponge, 10% lipid emulsion i.v. 1 ml/kg, n 8, vehicle alone 6.5 ± 0.7): 11.8 ± 0.9 mg/sponge | blood vessels on sponge surface (FIG. 4) (angiogenesis by b-FGF [4]; b-FGF administration group (group 2)): a number of blood vessels were observed on the surface of the sponge, showing formation of a blood vessel network

Reference: patent US6288113A, “Angiogenesis promoters” (Welfide Corporation, priority 1997, dated 2001)
